Here are results for 12 compounds from patent publication US12606533B2, “3-phenylpropylamine derivative” (DAIICHI SANKYO COMPANY, LIMITED, priority 2023, dated 2026).

The subject of test [1] is CYP21A2. In words: Changes in SF1 target gene expression for NCI-H295R: CYP21A2 mRNA (qPCR). The test is classed as cell-based. The conditions noted are these: Homo sapiens, NCI-H295R cells, 24 hr. As for the experimental part:
(§1) NCI-H295R cells were cultured in a 5% CO2 incubator at 37° C. using DMEM/F12 medium (Thermo Fisher Scientific Inc.) containing 2.5% Nu-Serum (registered trademark) Growth Medium Supplement (Corning) and 1% Corning ITS+ Premix Universal Culture Supplement (Corning). The DMSO solution of each compound was serially diluted with DMSO using a D300e Digital Dispenser (TECAN), and the compounds were added to a 96-well plate (FALCON). NCI-H295R cells were seeded at 1×10^4 cells/50 μL/well on the 96-well plate containing the compounds added thereto, and cultured for 24 hr in a 5% CO2 incubator at 37° C. The final DMSO concentration in the medium was adjusted to 0.1% (v/v) in all cases, and the concentration range of the compounds was set to 1000 nM to 0.32 nM with a common ratio […]. After the completion of culture, the medium was discarded, 50 μL/well of chilled D-PBS (Sigma Aldrich) was added to wash the cells, and D-PBS was discarded. After washing, 25 μL/well of Cells-to-CT (registered trademark) Bulk Lysis Reagents (Thermo Fisher Scientific, Inc.) was added to the wells, the mixture was stirred for 5 min with a plate mixer, and 2.5 μL/well of the reaction quenching liquid was added to prepare cell lysate. The cell lysate was dispensed into a 96-well plate (Corning) at 10 μL/well, and 40 μL/well of Cells-to-CT Bulk RT Reagents (Thermo Fisher Scientific, Inc.) was added. A reverse transcription reaction was performed at 37° C. for 50 min using a thermal cycler, and the reverse transcriptase was inactivated by heating at 95° C. for 5 min, and then stored at 10° C. PrimeTime (registered trademark) Gene Expression Master Mix (Integrated DNA Technologies), the target genes CYP11A1, CYP17A1, CYP21A2, or STAR, and the control gene ACTB PrimeTime (registered trademark) qPCR Probe Assays (Integrated DNA Technologies), and Nuclease free water were mixed at a ratio of 20:1:1:10 to prepare a PrimerProbe mix. The prepared PrimerProbe mix was added to a 384-well plate at 8 μL/well, and the cDNA obtained by reverse transcription was added at 2 μL/well. Real-Time PCR was performed under fast cycling conditions (95° C. for 3 min, followed by 40 cycles of 95° C. for 5 seconds and 62° C. for 30 seconds) to measure the fluorescent signal. The obtained data was analyzed using GraphPad Prism9 (GraphPad Software Inc.) to calculate the concentration (IC50 value) that reduces the mRNA expression level by 50%. The IC50 values (unit: nM) for CYP11A1, CYP17A1, CYP21A2, and STAR, of the compounds corresponding to each Example number are shown in Table 94.

The target of test [2] is SF1-LBD (Homo sapiens, UniProt Q13285). As to the kind of experiment: Inhibitory activity against binding of DAX1 to SF1-LBD (AlphaLISA). To be noted: inhibition of binding of DAX1 peptide to His-SF1-LBD, read-out: cell-free SF1 IC50. As for the experimental part: The binding activity of each compound to the SF-1 ligand binding domain (LBD) was evaluated using the binding inhibitory activity of each compound against binding of DAX1 to SF1-LBD as an index. 100 nM His-SF1-LBD, 2 nM Biotin-DAX1 peptide (Biotin-[…]-NH2) and each compound (8-point i1 dilution series with common ratio 2 from final concentration 2 μM) were mixed in assay buffer [25 mM HEPES (pH 7.5), 100 mM NaCl, 0.1% BSA, 0.01% CHAPS, 1 mM DTT] and reacted at room temperature for 30 min. Anti-6×His AlphaLISA Acceptor beads and Streptavidin-coated AlphaScreen Donor beads were mixed to a final concentrations of 5 μg/ml and 10 μg/ml, respectively, and reacted in the dark at room temperature for 60 min. AlphaLISA signals were detected using a multimode plate reader (EnVision Xcite, PerkinElmer). The binding rate of DAX1 peptide to SF1 was calculated from the luminescence amount (C) of the compound-free group and the luminescence amount (T) of the compound-added group, based on the following formula.
SF1-LBD, sequence (Q13285 222-459 limits assumed): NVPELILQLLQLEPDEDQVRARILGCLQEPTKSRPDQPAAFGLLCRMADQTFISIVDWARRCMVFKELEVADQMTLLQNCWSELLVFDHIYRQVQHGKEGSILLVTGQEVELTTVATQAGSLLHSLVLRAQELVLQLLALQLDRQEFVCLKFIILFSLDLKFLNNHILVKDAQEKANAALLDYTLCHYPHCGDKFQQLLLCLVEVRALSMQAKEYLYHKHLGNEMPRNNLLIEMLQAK
The DAX1 peptide binding rate at each concentration was analyzed using GraphPad Prism6 (GraphPad Software Inc.) to calculate the concentration (IC50 value) of each compound that inhibits 50% of the binding of DAX1 to SF1-LBD.

Test [3] relates to CYP17A1. As to the kind of experiment: Changes in SF1 target gene expression for NCI-H295R: CYP17A1 mRNA (qPCR). The test is classed as cell-based. The conditions noted are these: Homo sapiens, NCI-H295R cells, 24 hr. The procedure: as §1
A general note: Real-time PCR tracks product formation cycle by cycle.

For test [4], the system named is CYP11A1. As to the kind of experiment: Changes in SF1 target gene expression for NCI-H295R: CYP11A1 mRNA (qPCR). Type of test: cell-based. The conditions noted are these: Homo sapiens, NCI-H295R cells, 24 hr. As for the experimental part:
as §1

Test [5] deals with STAR. As to the kind of experiment: Changes in SF1 target gene expression for NCI-H295R: STAR mRNA (qPCR). Type of test: cell-based. The conditions noted are these: Homo sapiens, NCI-H295R cells, 24 hr. As for the experimental part:
as §1

What is called IC50 is the concentration needed to halve the response being measured. As for `COc1ccc(C2(CCN(Cc3ccc(O[C@H]4CC[C@H](C(=O)O)CC4)cc3)c3ncc(F)cn3)CCOC(C)(C)C2)cc1` (stereo partly drawn) [Example O2, Trans-4-(4-{[(5-fluoropyrimidin-2-yl) {2-[4-(4-methoxyphenyl)-2,2-dimethyltetrahydro-2H-pyran-4-yl]ethyl}amino]methyl}phenoxy)cyclohexanecarboxylic acid], the IC50 in test [1] is 82 nM; in test [2], 36 nM; in test [3] it was 211 nM; in test [4], 35 nM; in test [5], 75 nM.

For `COc1ccc(C2(CCN(Cc3ccc(O[C@H]4CC[C@H](C(=O)NS(=O)(=O)N(C)C)CC4)cc3)C(=O)C(C)(C)C)CCOC(C)(C)C2)cc1` (stereo partly drawn) [Example H1, Trans-4-(4-{[(2,2-dimethylpropanoyl) {2-[4-(4-methoxyphenyl)-2,2-dimethyltetrahydro-2H-pyran-4-yl]ethyl}amino]methyl}phenoxy)-N-(dimethylsulfamoyl)cyclohexanecarboxamide], the IC50 in test [1] came to 39 nM; in test [2], 32 nM; in test [3] it was 80 nM; in test [4], 25 nM; in test [5], 37 nM.

In the case of `CCO[C@@H](Cc1ccc(Oc2ccc(CN(CC[C@@]3(c4ccc(OC)cc4)CCOC(C)(C)C3)CC(C)(C)C(F)(F)F)cc2)cc1)C(=O)O` [Example R3, (2S)-2-Ethoxy-3-[4-(4-{[{2-[(4R)-4-(4-methoxyphenyl)-2,2-dimethyltetrahydro-2H-pyran-4-yl]ethyl}(3,3,3-trifluoro-2,2-dimethylpropyl)amino]methyl}phenoxy)phenyl]propanoic acid], the IC50 in test [1] worked out at 4.3 nM; in test [2], 27 nM; in test [3], 28 nM; in test [4], 3.3 nM; in test [5] it was 6.2 nM.

With `COc1ccc(C2(CCN(Cc3ccc(Oc4ccc(CC(C)(C)C(=O)O)cc4)cc3)C(=O)C(C)(C)C)CCOC(C)(C)C2)cc1` (centres unmarked) [Example J4, 3-[4-(4-{[(2,2-Dimethylpropanoyl){2-[4-(4-methoxyphenyl)-2,2-dimethyltetrahydro-2H-pyran-4-yl]ethyl}amino]methyl}phenoxy)phenyl]-2,2-dimethylpropanoic acid], the IC50 in test [1] turned out to be 8.1 nM; in test [2] it was 39 nM; in test [3] it was 70 nM; in test [4], 4.1 nM; in test [5], 14 nM.

As for `COc1ccc([C@]2(CCN(Cc3ccc(Oc4ccc(C(C)C(=O)O)cc4)cc3)CC(C)(C)C(F)(F)F)CCOC(C)(C)C2)cc1` (stereo partly drawn) [Example P3, 2-[4-(4-{[{2-[(4R)-4-(4-Methoxyphenyl)-2,2-dimethyltetrahydro-2H-pyran-4-yl]ethyl}(3,3,3-trifluoro-2,2-dimethylpropyl)amino]methyl}phenoxy)phenyl]propanoic acid], the IC50 was found to be 9.8 nM in test [1]; 30 nM in test [2]; 137 nM in test [3]; 4.4 nM in test [4]; 19 nM in test [5].

Take `COc1ccc([C@]2(CCN(Cc3ccc(O[C@H]4CC[C@H](CS(C)(=N)=O)CC4)cc3)C(=O)C(C)(C)C(F)F)CCOC(C)(C)C2)cc1` (single isomer, unassigned) [Example U11, 3,3-Difluoro-N-{2-[(4R)-4-(4-methoxyphenyl)-2,2-dimethyltetrahydro-2H-pyran-4-yl]ethyl}-2,2-dimethyl-N-{4-[(trans-4-{[(R) or (S)—S-methylsulfonimidoyl]methyl}cyclohexyl)oxy]benzyl}propanamide]: the IC50 stood at 24 nM in test [1]; 21 nM in test [2]; 140 nM in test [3]; 10 nM in test [4]; 54 nM in test [5].

With `CC1(C)CC(CCN(Cc2ccc(O[C@H]3CC[C@H](C(=O)O)CC3)cc2)C(=O)C(C)(C)C)(c2ccc(N3CCCC3)cc2)CCO1` (stereo partly drawn) [Example G3, Trans-4-(4-{[(2,2-dimethylpropanoyl) (2-{2,2-dimethyl-4-[4-(pyrrolidin-1-yl)phenyl]tetrahydro-2H-pyran-4-yl}ethyl)amino]methyl}phenoxy)cyclohexanecarboxylic acid], the IC50 came out at 42 nM in test [1]; 54 nM in test [2]; 73 nM in test [3]; 32 nM in test [4]; 35 nM in test [5].

In the case of `COc1ccc([C@]2(CCN(Cc3ccc(O[C@H]4CC[C@H](CC(=O)O)CC4)cc3)CC(C)(C)C(F)(F)F)CCOC(C)(C)C2)cc1` [Example T2, [Trans-4-(4-{[{2-[(4R)-4-(4-methoxyphenyl)-2,2-dimethyltetrahydro-2H-pyran-4-yl]ethyl}(3,3,3-trifluoro-2,2-dimethylpropyl)amino]methyl}phenoxy)cyclohexyl]acetic acid], the IC50 in test [1] is 2.4 nM; in test [2], 26 nM; in test [3] it was 24 nM; in test [4] it was 1.2 nM; in test [5], 4.1 nM.

As to `COc1ccc(C2(CCN(Cc3ccc(O[C@H]4CC[C@H](C(=O)O)CC4)cc3)C(=O)C(C)(C)C)CCOC(C)(C)C2)cc1` (stereo partly drawn) [Example D3, Trans-4-(4-{[(2,2-dimethylpropanoyl){2-[4-(4-methoxyphenyl)-2,2-dimethyltetrahydro-2H-pyran-4-yl]ethyl}amino]methyl}phenoxy)cyclohexanecarboxylic acid], the IC50 in test [1] came to 78 nM; in test [2], 29 nM; in test [3], 144 nM; in test [4] it was 53 nM; in test [5] it was 76 nM.

`COc1ccc([C@]2(CCN(Cc3ccc(O[C@H]4CC[C@H](C(=O)O)CC4)cc3)C(=O)C(C)(C)C)CCOC(C)(C)C2)cc1` [Example E2, Trans-4-(4-{[(2,2-dimethylpropanoyl) {2-[(4R)-4-(4-methoxyphenyl)-2,2-dimethyltetrahydro-2H-pyran-4-yl]ethyl)amino]methyl}phenoxy)cyclohexanecarboxylic acid]: the IC50 is 33 nM in test [1]; 19 nM in test [2]; 189 nM in test [3]; 17 nM in test [4]; 65 nM in test [5].

As for `CNc1ccc(C2(CCN(Cc3ccc(O[C@H]4CC[C@H](C(=O)O)CC4)cc3)C(=O)C(C)(C)C)CCOC(C)(C)C2)cc1` (stereo partly drawn) [Example L2, Trans-4-(4-{[(2-{2,2-dimethyl-4-[4-(methylamino)phenyl]tetrahydro-2H-pyran-4-yl}ethyl) (2,2-dimethylpropanoyl)amino]methyl}phenoxy)cyclohexanecarboxylic acid], the IC50 in test [1] was determined as 46 nM; in test [2], 32 nM; in test [3], 238 nM; in test [4], 17 nM; in test [5] it was 83 nM.

`COc1ccc([C@]2(CCN(Cc3ccc(C4=CC[C@H](CN5CCN(C(=O)OC(C)(C)C)CC5)CC4)cc3)CC(C)(C)C(F)(F)F)CCOC(C)(C)C2)cc1` [Example X2, tert-Butyl 4-{[(4R)-4′-{[{2-[(4R)-4-(4-methoxyphenyl)-2,2-dimethyltetrahydro-2H-pyran-4-yl]ethyl)(3,3,3-trifluoro-2,2-dimethylpropyl)amino]methyl}-2,3,4,5-tetrahydro[biphenyl]-4-yl]methyl}piperazine-1-carboxylate]: the IC50 in test [1] is 581 nM; in test [3], 1230 nM; in test [4] it was 511 nM; in test [5], 776 nM.
